Laboratory results as given in patent US12065445B2, “CDK2 inhibitors and methods of using the same” (Cedilla Therapeutics, Inc., priority 2021, dated 2024).

Test system: Kuramochi cells
Test: BrdU Cell Proliferation Assay
Assay type: cell-based
Conditions: read-out: BrdU - KURAMOCHI.1: IC50
Procedure: A BrdU assay was used as a measure of proliferation based on the DNA replication process of proliferating cells. BrdU, a pyrimidine analog, is added to the cell culture and incorporated into the DNA of proliferating cells. The presence of the BrdU analog was then measured through a colorimetric ELISA. After fixation and permeabilization of cells, peroxidase-conjugated antibody recognizing BrdU is added and allowed to incubate, followed by thorough washing to remove unbound antibody. In order to quantify the amount of bound antibody, peroxidase substrate is added and produces a color that can be measured at 450 nm.
On day −1, Kuramochi cells (Sekisui XenoTech JCRB0098) were seeded at 2,000 cells/well in columns 2-12 of a 96 well plate (Corning, CLS3596) in 150 μL media and allowed to adhere overnight at 37 degree with 5% CO2.
On day 0, the source plate was prepared by adding 10 mM compounds and performing 3-fold serial dilutions for a 10-point dose response of each compound. Using a multichannel pipette, 2 μL of the contents of the source plate were stamped into an intermediate plate with 500 μL of RPMI 1640 Media, GlutaMAX Supplement (Life Technologies, 61870127) in each well of a Nunc 96 DeepWell™ plate, non-treated 96 DeepWell plate, 2 mL/well, sterile, natural, 60/cs (Sigma Z717274) and mixed thoroughly. 50 μL from each well of this intermediate plate were added to 4 wells of a 96-well plate with previously seeded Kuramochi cells.
On day 4, the plates were developed using the BrdU ELISA Cell Proliferation Assay according to manufacturer's instructions (Roche, 11647229001). Briefly, BrdU was diluted 1:100 in Gibco®, OptiMEM® and 20 μL/well was added, shaken for 10 minutes at 350 rpm, and then returned to the incubator for 1 hour. Following incubation, the medium was discarded, and the cells were fixed by adding 200 μL of Fix/Denature solution. The anti-BrdU peroxidase antibody was diluted 1:1000 in OptiMEM, added at 100 μL/well, and incubated while shaking (350 rpm) for one hour. Three washes with PBS were performed to remove any unbound antibody, followed by the addition of 100 μL of substrate solution to each well. 25 μL/well of 1M sulfuric acid solution was then added to halt the reaction, and plates were read out using an Envision spectrophotometer (Perkin Elmer) set to read 450 nm absorbance. Background absorbance values from empty wells were subtracted from all samples and then normalized to DMSO treated wells.

Row | SMILES | IC50
1 | CNC(=O)[C@@H](NC(=O)[C@H]1CN(C(=O)C2CCNC2)CC12CN(C(=O)[C@H]1CC1(C)C)C2)[C@@H](C)OCc1ccccc1 (stereo partly shown) [I-70B] | > 10 µM
2 | CNC(=O)[C@@H](NC(=O)[C@@H]1CN(C(=O)c2cnn(Cc3ccccc3)c2)CC12CN(C(=O)C1(F)CC1)C2)[C@@H](C)OCc1ccccc1 [I-71A] | > 10 µM
3 | CNC(=O)[C@@H](NC(=O)[C@H]1CN(C(=O)c2cnn(Cc3ccccc3)c2)CC12CN(C(=O)C1(F)CC1)C2)[C@@H](C)OCc1ccccc1 [I-71B] | > 10 µM
4 | CNC(=O)[C@@H](NC(=O)[C@@H]1CN(C(=O)c2c[nH]c3ccccc23)CC12CN(C(=O)[C@H]1CC1(C)C)C2)[C@@H](C)OCc1ccccc1 [I-72A] | > 10 µM
5 | CNC(=O)[C@@H](NC(=O)[C@H]1CN(C(=O)c2c[nH]c3ccccc23)CC12CN(C(=O)[C@H]1CC1(C)C)C2)[C@@H](C)OCc1ccccc1 [I-72B] | > 10 µM
6 | CNC(=O)[C@@H](NC(=O)[C@@H]1CN(C(=O)c2cnn(Cc3ccccc3)c2)CC12CN(C(=O)C1(C#N)CC1)C2)[C@@H](C)OCc1ccccc1 [I-73A] | > 10 µM
7 | CNC(=O)[C@@H](NC(=O)[C@H]1CN(C(=O)c2cnn(Cc3ccccc3)c2)CC12CN(C(=O)C1(C#N)CC1)C2)[C@@H](C)OCc1ccccc1 [I-73B] | > 10 µM
8 | CCC(CC)C(=O)N1CC2(CN(C(=O)c3cnn(Cc4ccccc4)c3)C[C@H]2C(=O)N[C@H](C(=O)NC)[C@@H](C)OCc2ccccc2)C1 [I-74A] | > 10 µM
9 | CCC(CC)C(=O)N1CC2(CN(C(=O)c3cnn(Cc4ccccc4)c3)C[C@@H]2C(=O)N[C@H](C(=O)NC)[C@@H](C)OCc2ccccc2)C1 [I-74B] | > 10 µM
10 | CC1(C)C[C@@H]1C(=O)N1CC2(CN(C(=O)c3cnn(Cc4ccccc4)c3)C[C@H]2C(=O)Nc2cccc(Cc3ccccc3)c2)C1 [I-75A] | 0.5 to 5 µM
11 | CC1(C)C[C@@H]1C(=O)N1CC2(CN(C(=O)c3cnn(Cc4ccccc4)c3)C[C@@H]2C(=O)Nc2cccc(Cc3ccccc3)c2)C1 [I-75B] | > 10 µM
12 | CNC(=O)[C@@H](NC(=O)[C@@H]1CN(C(=O)c2cnn(Cc3ccccc3)c2)CC12CN(C(=O)C(C)(C)C#N)C2)[C@@H](C)OCc1ccccc1 [I-76A] | > 10 µM
13 | CNC(=O)[C@@H](NC(=O)[C@H]1CN(C(=O)c2cnn(Cc3ccccc3)c2)CC12CN(C(=O)C(C)(C)C#N)C2)[C@@H](C)OCc1ccccc1 [I-76B] | > 10 µM
14 | CNC(=O)[C@@H](NC(=O)[C@@H]1CN(Cc2cnc[nH]2)CC12CN(C(=O)[C@H]1CC1(C)C)C2)[C@@H](C)OCc1ccccc1 [I-77A, (S)-6-((1H-imidazol-5-yl)methyl)-N-((2S,3R)-3-(benzyloxy)-1-(methylamino)-1-oxobutan-2-yl)-2-((S)-2,2-dimethylcyclopropane-1-carbonyl)-2,6-diazaspiro[3.4]octane-8-carboxamide] | > 10 µM
15 | CNC(=O)[C@@H](NC(=O)[C@H]1CN(Cc2cnc[nH]2)CC12CN(C(=O)[C@H]1CC1(C)C)C2)[C@@H](C)OCc1ccccc1 [I-77B] | > 10 µM
16 | CNC(=O)[C@@H](NC(=O)[C@@H]1CN(Cc2cnco2)CC12CN(C(=O)[C@H]1CC1(C)C)C2)[C@@H](C)OCc1ccccc1 [I-78A, (S)—N-((2S,3R)-3-(benzyloxy)-1-(methylamino)-1-oxobutan-2-yl)-2-((S)-2,2-dimethylcyclopropane-1-carbonyl)-6-(oxazol-5-ylmethyl)-2,6-diazaspiro[3.4]octane-8-carboxamide] | > 10 µM
17 | CNC(=O)[C@@H](NC(=O)[C@H]1CN(Cc2cnco2)CC12CN(C(=O)[C@H]1CC1(C)C)C2)[C@@H](C)OCc1ccccc1 [I-78B] | > 10 µM
18 | CNC(=O)[C@@H](NC(=O)[C@@H]1CN(S(=O)(=O)c2cnn(Cc3ccccc3)c2)CC12CN(C(=O)[C@H]1CC1(C)C)C2)[C@@H](C)OCc1ccccc1 [I-79A] | > 10 µM
19 | CNC(=O)[C@@H](NC(=O)[C@H]1CN(S(=O)(=O)c2cnn(Cc3ccccc3)c2)CC12CN(C(=O)[C@H]1CC1(C)C)C2)[C@@H](C)OCc1ccccc1 [I-79B] | > 10 µM
20 | CNC(=O)[C@@H](NC(=O)[C@@H]1CN(C(=O)c2cnn(Cc3ccccc3)c2)CC12CN(C(=O)C1(c3ccc(C(C)(C)C)cc3)CC1)C2)[C@@H](C)OCc1ccccc1 [I-80A] | > 10 µM
21 | CNC(=O)[C@@H](NC(=O)[C@H]1CN(C(=O)c2cnn(Cc3ccccc3)c2)CC12CN(C(=O)C1(c3ccc(C(C)(C)C)cc3)CC1)C2)[C@@H](C)OCc1ccccc1 [I-80B] | > 10 µM
22 | CC1(C)C[C@@H]1C(=O)N1CC2(CN(C(=O)c3cnn(Cc4ccccc4)c3)C[C@@H]2C(=O)Nc2ccc(-c3ccccc3)cc2)C1 [I-81B] | 5 to 10 µM

Row | SMILES | IC50
23 | CNC(=O)[C@@H](NC(=O)[C@@H]1CN(C(=O)c2cnn(Cc3ccccc3)c2)CC12CN(C(=O)CC1(COC)CC1)C2)[C@@H](C)OCc1ccccc1 [I-82A] | > 10 µM
24 | CNC(=O)[C@@H](NC(=O)[C@H]1CN(C(=O)c2cnn(Cc3ccccc3)c2)CC12CN(C(=O)CC1(COC)CC1)C2)[C@@H](C)OCc1ccccc1 [I-82B] | > 10 µM
25 | CC1(C)C[C@@H]1C(=O)N1CC2(CN(C(=O)c3cnn(Cc4ccccc4)c3)C[C@H]2C(=O)N[C@H]2CCCN(C(=O)c3ccccc3)C2)C1 [I-83A] | > 10 µM
26 | CC1(C)C[C@@H]1C(=O)N1CC2(CN(C(=O)c3cnn(Cc4ccccc4)c3)C[C@@H]2C(=O)N[C@H]2CCCN(C(=O)c3ccccc3)C2)C1 [I-83B] | > 10 µM
27 | CC1(C)C[C@@H]1C(=O)N1CC2(CN(C(=O)c3cnn(Cc4ccccc4)c3)C[C@@H]2C(=O)Nc2ccc(Cc3ccccc3)cc2)C1 [I-84B] | 5 to 10 µM
28 | C[C@@H](OCc1ccccc1)[C@H](NC(=O)C1CN(C(=O)c2cnn(Cc3ccccc3)c2)CC12CN(C(=O)[C@H]1CC1(C)C)C2)C(=O)N1CCC(F)(F)CC1 (stereo partly shown) [I-85] | 0.5 to 5 µM
29 | C[C@@H](OCc1ccccc1)[C@H](NC(=O)C1CN(C(=O)c2cnn(Cc3ccccc3)c2)CC12CN(C(=O)[C@H]1CC1(C)C)C2)C(=O)N1CCOCC1 (stereo partly shown) [I-86] | > 10 µM
30 | CNC(=O)[C@@H](NC(=O)[C@@H]1CN(C(=O)c2cnn(Cc3ccccc3)c2)CC12CN(C(=O)CC(F)(F)F)C2)[C@@H](C)OCc1ccccc1 [I-87A] | > 10 µM
31 | CNC(=O)[C@@H](NC(=O)[C@H]1CN(C(=O)c2cnn(Cc3ccccc3)c2)CC12CN(C(=O)CC(F)(F)F)C2)[C@@H](C)OCc1ccccc1 [I-87B] | > 10 µM
32 | CNC(=O)[C@@H](NC(=O)[C@@H]1CN(C(=O)c2cnn(Cc3ccccc3)c2)CC12CN(C(=O)[C@H]1CC1(C)C)C2)[C@@H](C)O [I-88A, (S)-6-(1-benzyl-1H-pyrazole-4-carbonyl)-2-((S)-2,2-dimethylcyclopropane-1-carbonyl)-N-((2S,3R)-3-hydroxy-1-(methylamino)-1-oxobutan-2-yl)-2,6-diazaspiro[3.4]octane-8-carboxamide] | > 10 µM
33 | CNC(=O)[C@@H](NC(=O)[C@H]1CN(C(=O)c2cnn(Cc3ccccc3)c2)CC12CN(C(=O)C1CC1(C)C)C2)[C@@H](C)O (stereo partly shown) [I-88B] | > 10 µM
34 | CNC(=O)[C@@H](NC(=O)[C@@H]1CN(C(=O)c2cnn(Cc3ccccc3)c2)CC12CN(C(=O)C1C(C)(C)C1(C)C)C2)[C@@H](C)OCc1ccccc1 [I-89A] | > 10 µM
35 | CNC(=O)[C@@H](NC(=O)[C@H]1CN(C(=O)c2cnn(Cc3ccccc3)c2)CC12CN(C(=O)C1C(C)(C)C1(C)C)C2)[C@@H](C)OCc1ccccc1 [I-89B] | > 10 µM
36 | CNC(=O)[C@@H](NC(=O)[C@@H]1CN(C(=O)c2cnn(Cc3ccccc3)c2)CC12CN(C(=O)C(C)(C)F)C2)[C@@H](C)OCc1ccccc1 [I-90A] | > 10 µM
37 | CNC(=O)[C@@H](NC(=O)[C@H]1CN(C(=O)c2cnn(Cc3ccccc3)c2)CC12CN(C(=O)C(C)(C)F)C2)[C@@H](C)OCc1ccccc1 [I-90B] | > 10 µM
38 | CC1(C)C[C@@H]1C(=O)N1CC2(CN(C(=O)c3cnn(Cc4ccccc4)c3)C[C@H]2C(=O)N2CCCC(Cc3ccccc3)C2)C1 (stereo partly shown) [I-91A] | > 10 µM
39 | CC1(C)C[C@@H]1C(=O)N1CC2(CN(C(=O)c3cnn(Cc4ccccc4)c3)C[C@@H]2C(=O)N2CCCC(Cc3ccccc3)C2)C1 (stereo partly shown) [I-91B] | > 10 µM
40 | CNC(=O)[C@@H](NC(=O)[C@@H]1CN(C(=O)c2cnn(Cc3ccccc3)c2)CC12CN(C(=O)CC1(CO)CC1)C2)[C@@H](C)OCc1ccccc1 [I-92A] | > 10 µM
41 | CNC(=O)[C@@H](NC(=O)[C@H]1CN(C(=O)c2cnn(Cc3ccccc3)c2)CC12CN(C(=O)CC1(CO)CC1)C2)[C@@H](C)OCc1ccccc1 [I-92B] | > 10 µM
42 | CC1(C)C[C@@H]1C(=O)N1CC2(CN(C(=O)c3cnn(Cc4ccccc4)c3)CC2C(=O)Nc2ncc(-c3ccccc3)o2)C1 (stereo partly shown) [I-93] | > 10 µM
43 | CCCCC1CC1C(=O)N1CC2(CN(C(=O)c3cnn(Cc4ccccc4)c3)C[C@H]2C(=O)N[C@H](C(=O)NC)[C@@H](C)OCc2ccccc2)C1 (stereo partly shown) [I-94A] | > 10 µM
